# Source: patent US20230040770A1, “HETEROCYCLIC COMPOUND AND USE THEREOF” (TAKEDA PHARMACEUTICAL COMPANY LIMITED, priority 2019, published 2023)
# Biological target: T1, human orexin type 2 receptor (Homo sapiens, UniProt O43614)
# T1 construct: expressed in transfected cells
# T1 sequence (O43614 1-444): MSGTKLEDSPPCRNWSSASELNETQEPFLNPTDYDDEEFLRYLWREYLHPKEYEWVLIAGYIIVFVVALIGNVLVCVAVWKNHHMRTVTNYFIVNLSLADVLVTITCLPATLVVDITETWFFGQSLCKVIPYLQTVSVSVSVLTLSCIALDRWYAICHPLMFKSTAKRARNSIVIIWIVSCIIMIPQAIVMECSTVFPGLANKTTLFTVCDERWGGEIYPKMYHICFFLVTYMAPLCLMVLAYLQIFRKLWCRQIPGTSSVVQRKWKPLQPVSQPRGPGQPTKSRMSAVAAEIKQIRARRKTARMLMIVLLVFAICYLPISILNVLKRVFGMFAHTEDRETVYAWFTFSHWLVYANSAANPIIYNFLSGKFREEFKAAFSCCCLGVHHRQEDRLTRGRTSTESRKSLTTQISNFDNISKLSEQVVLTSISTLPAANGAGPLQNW
# Assay: Measurement of orexin type 2 receptor agonist activity (calcium indicator fluorescence, CHO cells forcibly expressing human OX2 receptor)
# Format: cell-based
# Conditions: compound at 3 μM; 0% = DMSO, 100% = orexin A (human) 10 nM
# Procedure, shortened: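 CHO-dhfr cells stably expressing human OX2R, loaded with Fluo-4 AM (30 min 37 °C, then 30 min RT), then given test compound. Calcium fluorescence read by FDSS over ~2 min. Activity (%) scaled from DMSO (0%) to 10 nM final orexin A (100%).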
row,SMILES,"OX2R agonist activity (3 μM, %)"
1,"O=C(C1CC1)N1C[C@H](F)[C@H](NS(=O)(=O)C2CC2)[C@@H]1Cc1cccc(-c2cc(F)ccc2F)c1F [Example 379, N-{(2S,3R,4S)-1-(cyclopropanecarbonyl)-4-fluoro-2-[(2,2′,5′-trifluoro[1,1′-biphenyl]-3-yl)methyl]pyrrolidin-3-yl}cycloproapnesulfonamide]",93%
2,"Cc1cccc(-c2cccc(C[C@H]3[C@@H](NS(=O)(=O)C4CC4)C(F)(F)CN3C(=O)C3(O)CCC3)c2F)c1 [Example 430, N-[(2S,3R)-4,4-difluoro-2-[(2-fluoro-3′-methyl[1,1′-biphenyl]-3-yl)methyl]-1-(1-hydroxycyclobutane-1-carbonyl)pyrrolidin-3-yl]cyclopropanesulfonamide]",96%
3,"CCS(=O)(=O)N[C@@H]1[C@H](Cc2cccc(-c3cccc(OC(F)F)c3)c2F)N(C(=O)C23CC(C2)C3)CC1(F)F [Example 551, N-[(2S,3R)-1-(bicyclo[1.1.1]pentane-1-carbonyl)-2-{[3′-(difluoromethxoy)-2-fluoro[1,1′-biphenyl]-3-yl]methyl}-4,4-difluoropyrrolidin-3-yl]ethanesulfonamide]",93%
4,"CCS(=O)(=O)N[C@H]1[C@@H](F)CN(C(=O)C(C)C)[C@H]1Cc1cccc(-c2ccccc2)c1F [Example 293, N-[(2S,3R,4S)-4-fluoro-2-[(2-fluoro[1,1′-biphenyl]-3-yl)methyl]-1-(2-methylpropanoyl)pyrrolidin-3-yl]ethanesulfonamide]",83%
5,"CCS(=O)(=O)N[C@H]1[C@@H](F)CN(C(=O)C23CC(C2)C3)[C@H]1Cc1cccc(-c2ccccc2)c1F [Example 308, N-{(2S,3R,4S)-1-(bicyclo[1.1.1]pentane-1-carbonyl)-4-fluoro-2-[(2-fluoro[1,1′-biphenyl]-3-yl)methyl]pyrrolidin-3-yl}ethanesulfonamide]",94%
6,"CS(=O)(=O)N[C@@H]1[C@H](Cc2cccc(-c3cccc(Cl)c3F)c2F)N(C(=O)C2CCO2)CC1(F)F (stereo partly drawn) [Example 264, N-[(2S,3R)-2-[(3′-chloro-2,2′-difluoro[1,1′-biphenyl]-3-yl)methyl]-4,4-difluoro-1-(oxetane-2-carbonyl)pyrrolidin-3-yl]methanesulfonamide]",98%
7,"CCS(=O)(=O)N[C@@H]1[C@H](Cc2cccc(-c3cccc(C(F)F)c3)c2F)N(C(=O)[C@H]2CCCO2)CC1(F)F [Example 457, N-{(2S,3R)-2-{[3′-(difluoromethyl)-2-fluoro[1,1′-biphenyl]-3-yl]methyl}-4,4-difluoro-1-[(2R)-oxolane-2-carbonyl]pyrrolidin-3-yl}ethanesulfonamide]",80%
8,"CS(=O)(=O)N[C@H]1[C@@H](F)CN(C(=O)C23CC(C2)C3)[C@H]1Cc1cccc(-c2cc(F)cc(F)c2)c1F [Example 374, N-{(2S,3R,4S)-1-(bicyclo[1.1.1]pentane-1-carbonyl)-4-fluoro-2-[(2,3′,5′-trifluoro[1,1′-biphenyl]-3-yl)methyl]pyrrolidin-3-yl}methanesulfonamide]",93%
9,"CCS(=O)(=O)N[C@@H]1[C@H](Cc2cccc(-c3cccc(OC(F)F)c3)c2F)N(C(=O)C(C)C)CC1(F)F [Example 549, N-[(2S,3R)-2-{[3′-(difluoromethoxy)-2-fluoro[1,1′-biphenyl]-3-yl]methyl}-4,4-difluoro-1-(2-methylpropanoyl)pyrrolidin-3-yl]ethanesulfonamide]",94%
10,"Cc1cc(F)cc(-c2cccc(C[C@H]3[C@@H](NS(=O)(=O)N(C)C)C(F)(F)CN3C(=O)N3CCC3)c2F)c1 [Example 546, N′-{(2S,3R)-1-(azetidine-1-carbonyl)-2-[(2,3′-difluoro-5′-methyl[1,1′-biphenyl]-3-yl)methyl]-4,4-difluoropyrrolidin-3-yl}-N,N-dimethylsulfuric diamide]",96%
11,"Cc1cccc(-c2cccc(C[C@H]3[C@@H](NS(=O)(=O)C4CC4)[C@@H](F)CN3C(=O)C3CCO3)c2F)c1 (stereo partly drawn) [Example 489, N-[(2S,3R,4S)-4-fluoro-2-[(2-fluoro-3′-methyl[1,1′-biphenyl]-3-yl)methyl]-1-(oxetane-2-carbonyl)pyrrolidin-3-yl]cyclopropanesulfonamide]",92%
12,"CN(C)C(=O)N1CC(F)(F)[C@H](NS(=O)(=O)C2CC2)[C@@H]1Cc1cccc(-c2cccc(F)c2)c1F [Example 523, (2S,3R)-3-[(cyclopropanesulfonyl)amino]-2-[(2,3′-difluoro[1,1′-biphenyl]-3-yl)methyl]-4,4-difluoro-N,N-dimethylpyrrolidine-1-carboxamide]",86%
13,"CS(=O)(=O)N[C@H]1[C@@H](F)CN(C(=O)C2CCO2)[C@H]1Cc1cccc(-c2cccc(F)c2)c1F (stereo partly drawn) [Example 323, N-[(2S,3R,4S)-2-[(2,3′-difluoro[1,1′-biphenyl]-3-yl)methyl]-4-fluoro-1-(oxetane-2-carbonyl)pyrrolidin-3-yl]methanesulfonamide]",92%
14,"CCS(=O)(=O)N[C@H]1[C@@H](F)CN(C(=O)C2CCO2)[C@H]1Cc1cccc(-c2cc(C)ccc2F)c1F (stereo partly drawn) [Example 502, N-[(2S,3R,4S)-2-[(2,2′-difluoro-5′-methyl[1,1′-biphenyl]-3-yl)methyl]-4-fluoro-1-(oxetane-2-carbonyl)pyrrolidin-3-yl]ethanesulfonamide]",96%
15,"CN(C)C(=O)N1CC(F)(F)[C@H](NS(=O)(=O)N(C)C)[C@@H]1Cc1cccc(-c2ccccc2)c1F [Example 138, (2S,3R)-3-[(dimethylsulfamoyl)amino]-4,4-difluoro-2-[(2-fluoro[1,1′-biphenyl]-3-yl)methyl]-N,N-dimethylpyrrolidine-1-carboxamide]",97%
16,"O=C(C1CCO1)N1C[C@H](F)[C@H](NS(=O)(=O)C2CC2)[C@@H]1Cc1cccc(-c2cc(F)cc(F)c2)c1F (stereo partly drawn) [Example 479, N-{(2S,3R,4S)-4-fluoro-1-(oxetane-2-carbonyl)-2-[(2,3′,5′-trifluoro[1,1′-biphenyl]-3-yl)methyl]pyrrolidin-3-yl}cyclopropanesulfonamide]",93%
17,"CCS(=O)(=O)N[C@H]1[C@@H](F)CN(C(=O)C2CCO2)[C@H]1Cc1cccc(-c2cccc(Cl)c2F)c1F (stereo partly drawn) [Example 423, N-[(2S,3R,4S)-2-[(3′-chloro-2,2′-difluoro[1,1′-biphenyl]-3-yl)methyl]-4-fluoro-1-(oxetane-2-carbonyl)pyrrolidin-3-yl]ethanesulfonamide]",90%
18,"CCS(=O)(=O)N[C@@H]1[C@H](Cc2cccc(-c3cccc(C)c3F)c2F)N(C(=O)N2CCC2)CC1(F)F [Example 291, N-{(2S,3R)-1-(azetidine-1-carbonyl)-2-[(2,2′-difluoro-3′-methyl[1,1′-biphenyl]-3-yl)methyl]-4,4-difluoropyrrolidin-3-yl}ethanesulfonamide]",90%
19,"CCS(=O)(=O)N[C@@H]1[C@H](Cc2cccc(-c3cccc(F)c3)c2)N(C(=O)[C@H]2CCCO2)CC1(F)F [Example 88, N-{(2S,3R)-4,4-difluoro-2-[(3′-fluoro[1,1′-biphenyl]-3-yl)methyl]-1-[(2R)-oxolane-2-carbonyl]pyrrolidin-3-yl}ethanesulfonamide]",98%
20,"CC(C)(O)C(=O)N1C[C@H](F)[C@H](NS(C)(=O)=O)[C@@H]1Cc1cccc(-c2cc(F)cc(Cl)c2)c1F [Example 391, N-[(2S,3R,4S)-2-[(3′-chloro-2,5′-difluoro[1,1′-biphenyl]-3-yl)methyl]-4-fluoro-1-(2-hydroxy-2-methylpropanoyl)pyrrolidin-3-yl]methanesulfonamide]",92%
21,"CS(=O)(=O)N[C@@H]1[C@H](Cc2cccc(-c3cccc(F)c3)c2F)N(C(=O)C2CC(F)C2)CC1(F)F (stereo partly drawn) [Example 392, N-[(2S,3R)-2-[(2,3′-difluoro[1,1′-biphenyl]-3-yl)methyl]-4,4-difluoro-1-(3-fluorocyclobutane-1-carbonyl)pyrrolidin-3-yl]methanesulfonamide]",97%
22,"CCS(=O)(=O)N[C@@H]1[C@H](Cc2cccc(-c3cccc(F)c3F)c2)N(C(=O)C2CCO2)CC1(F)F (stereo partly drawn) [Example 174, N -[(2S,3R)-2-[(2′,3′-difluoro[1,1′-biphenyl]-3-yl)methyl]-4,4-difluoro-1-(oxetane-2-carbonyl)pyrrolidin-3-yl]ethanesulfonamide]",90%
23,"CS(=O)(=O)N[C@@H]1[C@H](Cc2cccc(-c3cccc(Cl)c3)c2F)N(C(=O)C2CC2)CC1(F)F [Example 250, N-[(2S,3R)-2-[(3′-chloro-2-fluoro[1,1′-biphenyl]-3-yl)methyl]-1-(cyclopropanecarbonyl)-4,4-difluoropyrrolidin-3-yl]methanesulfonamide]",96%
24,"CS(=O)(=O)N[C@@H]1[C@H](Cc2cccc(-c3cccc(F)c3)c2F)N(C(=O)C2CC(F)C2)CC1(F)F (stereo partly drawn) [Example 393, N-[(2S,3R)-2-[(2,3′-difluoro[1,1′-biphenyl]-3-yl)methyl]-4,4-difluoro-1-(3-fluorocyclobutane-1-carbonyl)pyrrolidin-3-yl]methanesulfonamide]",94%
